In US20100183561A1, “Biological therapeutic compositions and methods thereof” (ARTERIOCYTE MEDICAL SYSTEMS, priority 2008, published 2010):
Counter-ions that a name gives are not always drawn.

Key:
[1] = Thrombin activation of antibiotic-enriched bovine PRP, visual observation; type: physicochemical; details: for Observation of PRP/Platelet Gel: gelling / Observation of PRP/Platelet Gel: precipitation or aggregation: antibiotic ~75 ug/ml final in bovine PRP, 10% CaCl2 solution, ambient conditions; for Effect on activation of PRP and gel formation / properties of PRP: smaller quantities (sufficient for local application) dissolved in CaCl2 solution, bovine PRP
Text: Study Design: This example evaluated the appearance and characteristics of antibiotics-enriched bovine PRP. There were two variables in this study: 1) choice of antibiotics, and 2) presence/absence of thrombin. Two antibiotics were used to couple PRP in this study: 1) Vancomycin and 2) Cefazolin. Thrombin, a common reagent for activation of fibrinogen in PRP (for use as a gel would sealant), was used to activate platelet gel-antibiotics/PRP mixture formation, and compared to a mixture not activated by thrombin.
Preparation of Bovine PRP: 60 ml of Bovine blood (anti-coagulant added) was processed with the Magellan® system to obtain 6 ml of bovine PRP. Bovince PRP was stored in a refrigerator.
Dissolution of Antibiotics in CaCl2 solution: Initial target dose of antibiotics was based on body weight and was estimated at 1.5 mg/kg body weight per unit of PRP, or 105 mg for a 70 kg adult. 3 ml PRP was prepared from 60 ml Bovine Blood with the Magellan® System, resulting in a 2× standard concentration. 105 mg was dissolved into 3 mL of saline solution. 1 ml each of PRP Vancomycin/saline solution were combined to yield a product approximating standard PRP, containing desired amount of Vancomycin.
Vancomycin: To achieve the revised target dose of 75 ug/ml, 5 mg antibiotic was added per 6 ml 10% w/v CaCl2 solution used to reconstitute thrombin for activation of 6 ml PRP.
5 mg Vancomycin hydrochloride (Acros Organics) was dissolved into 6 ml 10% w/v CaCl2 solution at ambient conditions for a concentration of 833 ug/ml. Agitation was necessary to properly dissolve Vancomycin due to its large grain sizes.
Cefazolin: 5 mg Cefazolin hydrochloride (Alexis) was dissolved into 6 ml 10% w/v CaCl2 solution at ambient conditions for a concentration of 833 ug/ml. Slight agitation was necessary to dissolve Cefazolin.
1 kU of bovine thrombin was dissolved into 1 ml of Antibiotic/10% w/v CaCl2 solution or Vancomycin/10% w/v CaCl2 solution.
Preparation of Cefazolin- or Vancomycin-Coupled PRP: 0.6 ml of the bovine thrombin/Vancomycin/10% w/v CaCl2 solution was added to 6 ml of bovine PRP to obtain 6.6 ml of Vancomycin coupled PRP gel to produce an activated gel with a final concentration of ˜75 ug/ml.
For controls, 0.6 ml of the Vancomycin/10% w/v CaCl2 solution (without thrombin) was added to 6 ml of bovine PRP to obtain 6.6 ml of Vancomycin coupled PRP gel to produce an activated gel with a final concentration of ˜75 ug/ml.
Evaluation of Cefazolin- or Vancomycin-Coupled PRP: After mixing, the antibiotic-enriched PRP with and without thrombin were left on bench top. Visual observation was used to evaluate the appearance and characteristics of the mixture material. This process was conducted under ambient conditions.

[2] = as above; type: physicochemical; details: initial dose 1.05 g per unit PRP, 1 ml of 2× concentration bovine PRP + Vancomycin solution, no thrombin, Hydrochloride

Structure (SMILES): Cc1nnc(SCC2=C(C(=O)[O-])N3C(=O)[C@@H](NC(=O)Cn4cnnn4)[C@H]3SC2)s1.[Na+] [Cefazolin, Cefazolin Sodium Salt]
- Observation of PRP/Platelet Gel: gelling ([1]; Thrombin: Yes): Mixture gels immediately within minutes,
- Observation of PRP/Platelet Gel: precipitation or aggregation ([1]; Thrombin: Yes): no precipitation or aggregation observed.
- Effect on activation of PRP and gel formation / properties of PRP [1]: did not appear to alter the properties PRP

Structure (SMILES): CN[C@H](CC(C)C)C(=O)N[C@H]1C(=O)N[C@@H](CC(N)=O)C(=O)N[C@H]2C(=O)N[C@H]3C(=O)N[C@H](C(=O)N[C@H](C(=O)O)c4cc(O)cc(O)c4-c4cc3ccc4O)[C@H](O)c3ccc(c(Cl)c3)Oc3cc2cc(c3O[C@@H]2O[C@H](CO)[C@@H](O)[C@H](O)[C@H]2O[C@H]2C[C@](C)(N)[C@H](O)[C@H](C)O2)Oc2ccc(cc2Cl)[C@H]1O [Vancomycin, Vancomycin Hydrochloride]
- Observation of PRP/Platelet Gel: precipitation or aggregation ([1]; Thrombin: No): white solid precipitates forming upon
- Observation of PRP/Platelet Gel: gelling ([1]; Thrombin: Yes): Mixture gels immediately within minutes;
- Effect on activation of PRP and gel formation / properties of PRP [1]: did not interfere with or premarturely initiate activation of PRP and gel formation
- Appearance of PRP combined with antibiotic solution at initial (systemic-order) dose [2]: Immediate aggregation of PRP into a solid
- Appearance of PRP combined with antibiotic solution at initial (systemic-order) dose ([2]; listed as vancomycin): rapid formation of heterogenous solids
